Consider 28 molecules from US8835445B2, “Dihydrofolate reductase inhibitors” (Trius Therapeutics, Inc., priority 2010, dated 2014).

For assay [1], the target named is human DHFR (Homo sapiens (Human), UniProt P00374). Description: DHFR enzymatic inhibition (Ki), human DHFR. In kind it is biochemical.
For assay [2], the system named is S. aureus. Description: Antibacterial activity (MIC), whole-cell bacterial growth inhibition. It counts as cell-based, Staphylococcus aureus. The settings on record: for MIC: Staphylococcus aureus. The text has this: Antibacterial activity as measured by the minimal inhibitory concentrations (MIC) and minimal bactericidal concentrations of compounds are well known (see., e.g., National Committee for Clinical Laboratory Standards 2000 Performance standards for antimicrobial disk susceptibility tests: approved standard, 7th ed. M2-A7, vol. 20, no. 1, Committee for Clinical Laboratory Standards, Wayne, Pa.) In vitro testing for antibacterial activity may be accomplished through use of a whole-cell bacterial growth inhibition assay. For example, an […] assay identifies a substance that inhibits bacterial growth. Microtiter plates are prepared with serial dilutions of the test compound, adding to the preparation a given amount of growth substrate, and providing a preparation of bacteria. Inhibition of bacterial growth is determined, for example, by observing changes in optical densities of the bacterial cultures. Inhibition of bacterial growth is determined, for example, by comparing (in the presence and absence of a test compound) the rate of growth or the absolute growth of bacterial cells. Inhibition includes a reduction of one of the above measurements by at least 20%.

Assay [3] concerns the target S. aurues DHFR (Staphylococcus aureus, UniProt P0A017). Kind of assay: biochemical. In kind it is biochemical.
Where [4] appears, read: S. aureus in 20% serum, read-out: MIC in μg/ml S. aureus in 20% serum.
The mark [5] stands for this setting: S. aureus, read-out: MIC in μg/ml S. aureus.

Structures are written as SMILES. In brackets after ≈: the same amount, converted by molar mass. Where two headings read alike, the source gives them in different places. Some results are limits rather than exact numbers.

human DHFR, sequence (P00374 whole entry): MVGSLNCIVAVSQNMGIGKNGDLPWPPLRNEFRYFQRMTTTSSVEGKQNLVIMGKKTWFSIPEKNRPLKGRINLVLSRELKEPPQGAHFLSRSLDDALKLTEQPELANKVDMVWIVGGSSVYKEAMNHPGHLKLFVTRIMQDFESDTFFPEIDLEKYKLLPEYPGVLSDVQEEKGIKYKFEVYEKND

A word on the Ki: it is the equilibrium dissociation constant of an inhibitor or competing ligand from its target. As to `COc1ccccc1-c1ccc2c(N)nc(N)nc2c1` [Compound 1, 7-(2-methoxyphenyl)quinazoline-2,4-diamine], the Ki stood at 1140 nM in assay [1] and 2.7 nM in assay [3]. Besides, the values for the MIC in assay [2] (setting [4]) and in assay [2] (setting [5]) were 4 µg/mL (≈ 15 µM) and 2 µg/mL (≈ 7.51 µM), respectively.
`COc1cnc(Cl)cc1-c1cc2nc(N)nc(N)c2cc1C` [Compound 38, 7-(2-chloro-5-methyloxypyridin-4-yl)-6-methylquinazoline-2,4-diamine]: the Ki in assay [1] is 52.4 nM; in assay [3] (S. aureus DHFR) it was 1.4 nM. Also, the MIC in assay [2] (setting [4]) and in assay [2] (setting [5]) was 1 µg/mL (≈ 3.17 µM) each time.
`Cc1cc2c(N)nc(N)nc2cc1-c1cccc2[nH]ccc12` [Compound 9, 7-(1H-indol-4-yl)-6-methylquinazoline-2,4-diamine]: the inhibitory constant (Ki) was found to be 245 nM in assay [1] and 0.61 nM in assay [3] (S. aureus DHFR). The figures for the MIC in assay [2] (setting [4]) and in assay [2] (setting [5]) were 1 µg/mL (≈ 3.46 µM) and 0.25 µg/mL (≈ 0.864 µM), respectively.
`Cc1cc2c(N)nc(N)nc2cc1-c1c[nH]c2ccccc12` [Compound 41, 7-(1H-indol-3-yl)-6-methylquinazoline-2,4-diamine]: the inhibitory constant (Ki) in assay [1] was 50.5 nM; in assay [3] (S. aureus DHFR), 0.11 nM. Besides, the MIC in assay [2] (setting [4]) was 0.5 µg/mL (≈ 1.73 µM); in assay [2] (setting [5]), 0.25 µg/mL (≈ 0.864 µM).
For the molecule `Cc1ccc2c(c1)nc(-c1cccs1)n2-c1ccc2c(N)nc(N)nc2c1` [Compound 36], the Ki was 314 nM in assay [1] and 0.005 nM in assay [3] (S. aureus DHFR). The MIC in assay [2] (setting [4]) and in assay [2] (setting [5]) was 1 µg/mL (≈ 2.68 µM) throughout.
Regarding `Nc1nc(N)c2ccc(-c3ccccc3N)cc2n1` [Compound 2, 7-(2-aminophenyl)quinazoline-2,4-diamine], the Ki in assay [1] came out at 3920 nM; in assay [3] (S. aureus DHFR), 15.3 nM. Also, the MIC in assay [2] (setting [4]) and in assay [2] (setting [5]) was 8 µg/mL (≈ 31.8 µM) throughout.
Take `Cc1cc2c(N)nc(N)nc2cc1-c1cnc2[nH]ccc2c1` [Compound 27, 6-methyl-7-(1H-pyrrolo[2,3-b]pyridin-5-yl)quin-azoline-2,4-diamine]: the Ki in assay [1] was 235 nM; in assay [3] (S. aureus DHFR) it was 2.6 nM. Further, the MIC in assay [2] (setting [4]) and in assay [2] (setting [5]) was 4 µg/mL (≈ 13.8 µM) throughout.
In the case of `COc1ccc2nc(-c3ccco3)n(-c3ccc4c(N)nc(N)nc4c3)c2n1` [Compound 37], the inhibitory constant (Ki) worked out at 797 nM in assay [1] and 0.039 nM in assay [3] (S. aureus DHFR). For the same molecule, the MIC in assay [2] (setting [4]) is 0.5 µg/mL (≈ 1.34 µM); in assay [2] (setting [5]), 0.25 µg/mL (≈ 0.67 µM).
On to `Cc1cc2nc(-c3ccsc3)n(-c3ccc4c(N)nc(N)nc4c3)c2cc1C` [Compound 21, 7-(5,6-dimethyl-2-(thiophen-3-yl)-1H-benzo[d]-imidazol-1-yl)quinazoline-2,4-diamine], for which the Ki was found to be 663 nM in assay [1] and 0.012 nM in assay [3] (S. aureus DHFR). Further, the MIC in assay [2] (setting [4]) was 0.25 µg/mL (≈ 0.647 µM); in assay [2] (setting [5]), not above 0.125 µg/mL.
On to `CCOc1ccc(C(=O)N(CC)CC)cc1-c1cc2nc(N)nc(N)c2cc1C` [Compound 40, 3-(2,4-diamino-6-methylquinazolin-7-yl)-4-ethoxy-N,N-diethylbenzamide], for which the Ki is 34 nM in assay [1] and 0.025 nM in assay [3] (S. aureus DHFR). Also, the MIC in assay [2] (setting [4]) and in assay [2] (setting [5]) was 0.25 µg/mL (≈ 0.635 µM) each time.
For the molecule `Cc1cc2nc(-c3cccs3)n(-c3ccc4c(N)nc(N)nc4c3)c2cc1C` [Compound 18, 7-(5,6-dimethyl-2-(thiophen-2-yl)-1H-benzo[d]-imidazol-1-yl)quinazoline-2,4-diamine], the inhibitory constant (Ki) in assay [1] is 1030 nM; in assay [3] (S. aureus DHFR) it was 0.005 nM. Besides, the MIC was 0.5 µg/mL (≈ 1.29 µM) in assay [2] (setting [4]) and not above 0.125 µg/mL in assay [2] (setting [5]).
With `Cc1cc2nc(-c3nccs3)n(-c3cc4nc(N)nc(N)c4cc3Cl)c2cc1C` [Compound 34, 6-chloro-7-(5,6-dimethyl-2-(thiazol-2-yl)-1H-benzo[d]imidazol-1-yl)quinazoline-2,4-diamine], the inhibition constant Ki in assay [1] worked out at 8.8 nM; in assay [3] (S. aureus DHFR) it was 0.016 nM. The “MIC in μg/ml S. aureus” value in assay [2] (S. aureus) is reported as “≦0.125 μg/ml”. Besides, the “MIC in μg/ml S. aureus in 20% serum” value in assay [2] (S. aureus in 20% serum) is 2 µg/mL (≈ 4.74 µM).
Turning to `CC(=O)c1cccc(-c2ccc3c(N)nc(N)nc3c2)c1` [Compound 6, 1-(3-(2,4-diaminoquinazolin-7-yl)-phenyl)ethanone], the inhibition constant (Ki) in assay [1] was determined as 323 nM; in assay [3] (S. aureus DHFR), 4.4 nM. Also, the MIC in assay [2] (setting [4]) came out at 8 µg/mL (≈ 28.7 µM); in assay [2] (setting [5]), 4 µg/mL (≈ 14.4 µM).
`COc1cc2nc(-c3nccs3)n(-c3ccc4c(N)nc(N)nc4c3)c2cc1OC` [Compound 35]: the figures for the inhibition constant (Ki) in assay [1] and in assay [3] (S. aureus DHFR) were 854 nM and 0.16 nM, respectively. Besides, the MIC in assay [2] (setting [4]) and in assay [2] (setting [5]) was 0.25 µg/mL (≈ 0.596 µM) in each case.
Turning to `Cc1cc2c(N)nc(N)nc2cc1-c1cccc(C#N)c1` [Compound 11, 3-(2,4-diamino-6-methylquinazolin-7-yl)benzonitrile], the inhibitory constant (Ki) is 55 nM in assay [1] and 1.2 nM in assay [3] (S. aureus DHFR). The figures for the MIC in assay [2] (setting [4]) and in assay [2] (setting [5]) were 2 µg/mL (≈ 7.26 µM) and 1 µg/mL (≈ 3.63 µM), respectively.
For the molecule `COc1cc(-c2cc3nc(N)nc(N)c3cc2C)cc(OC)c1OC` [Compound 33, 6-methyl-7-(3,4,5-trimethoxyphenyl) quinazoline-2,4-diamine], the inhibition constant Ki in assay [1] is 47.1 nM; in assay [3] (S. aureus DHFR), 0.91 nM. Also, the MIC in assay [2] (setting [4]) is 1 µg/mL (≈ 2.94 µM); in assay [2] (setting [5]) it was not above 0.5 µg/mL.
The like results for `Cc1cc2nc(-c3nccs3)n(-c3ccc4c(N)nc(N)nc4c3)c2cc1C` [Compound 22, 7-[5,6-dimethyl-2-(thiazol-2-yl)-1H-benzo[d]-imidazol-1-yl]quinazoline-2,4-diamine] were, in that order, 93.5 nM, 0.002 nM, not above 0.125 µg/mL and not above 0.125 µg/mL.
With `Cc1cc2nc(-c3nccs3)n(-c3cc4nc(N)nc(N)c4cc3C)c2cc1C` [Compound 26, 7-(5,6-dimethyl-2-(thiazol-2-yl)-1H-benzo[d]-imidazol-1-yl)-6-methylquin-azoline-2,4-diamine], the results for the Ki in assay [1] and in assay [3] were 2.9 nM and 0.03 nM, respectively. Further, the MIC in assay [2] (setting [4]) and in assay [2] (setting [5]) was not above 0.125 µg/mL in each case.
In the case of `Cc1cc2nc(N3CCOCC3)n(-c3ccc4c(N)nc(N)nc4c3)c2cc1C` [Compound 19, 7-(5,6-dimethyl-2-morpholino-1H-benzo[d]-imidazol-1-yl)quinazoline-2,4-diamine], the inhibition constant Ki in assay [1] was 1090 nM; in assay [3] (S. aureus DHFR) it was 0.6 nM. Moreover, the MIC amounted to 4 µg/mL (≈ 10.3 µM) in assay [2] (setting [4]) and 1 µg/mL (≈ 2.57 µM) in assay [2] (setting [5]).
`Nc1ccc(-c2ccc3c(N)nc(N)nc3c2)cc1` [Compound 4, 7-(4-aminophenyl)quinazoline-2,4-diamine]: the Ki in assay [1] came to 702 nM; in assay [3] (S. aureus DHFR) it was 2.7 nM. Besides, the MIC in assay [2] (setting [4]) came out at 2 µg/mL (≈ 7.96 µM); in assay [2] (setting [5]), 4 µg/mL (≈ 15.9 µM).
Regarding `Cc1c(C(=O)OC(C)(C)C)nc(-c2cccs2)n1-c1ccc2c(N)nc(N)nc2c1` [Compound 39, tert-butyl 1-(2,4-diaminoquinazolin-7-yl)-5-methyl-2-thiophen-2-yl)-1H-imidazole-4-carboxylate], the results for the MIC in assay [2] (setting [4]) and in assay [2] (setting [5]) were 2 µg/mL (≈ 4.73 µM) and 1 µg/mL (≈ 2.37 µM), respectively.
As to `COc1cc2nc(-c3nccs3)n(-c3cc4nc(N)nc(N)c4cc3Cl)c2cc1OC` [Compound 23, 6-chloro-7-(5,6-dimethoxy-2-(thiazol-2-yl)-1H-benzo[d]imidazol-1-yl)quinazo-line-2,4-diamine], the inhibitory constant (Ki) amounted to 320 nM in assay [1] and 0.011 nM in assay [3] (S. aureus DHFR). Moreover, the MIC in assay [2] (setting [4]) is 0.5 µg/mL (≈ 1.1 µM); in assay [2] (setting [5]), not above 0.125 µg/mL.
For `Cc1cc2nc(-c3ccccn3)n(-c3ccc4c(N)nc(N)nc4c3)c2cc1C` [Compound 16, 7-(5,6-dimethyl-2-(pyridin-2-yl)-1H-benzo[d]-imidazol-1-yl)quinazoline-2,4-diamine], the Ki in assay [1] was 572 nM; in assay [3] (S. aureus DHFR), 0.022 nM. For the same molecule, the results for the MIC in assay [2] (setting [4]) and in assay [2] (setting [5]) were 0.25 µg/mL (≈ 0.655 µM) and not above 0.125 µg/mL, respectively.
In the case of `COc1ncc(-c2cc3nc(N)nc(N)c3cc2C)c(OC)n1` [Compound 29, 7-(2,4-dimethoxypyrimidin-5-yl)-6-methylquinazo-line-2,4-diamine], the values for the Ki in assay [1] and in assay [3] (S. aureus DHFR) were 54.7 nM and 0.4 nM, respectively. In addition, the MIC in assay [2] (setting [4]) and in assay [2] (setting [5]) was 0.5 µg/mL (≈ 1.6 µM) throughout.
With `COc1cc2nc(-c3nccs3)n(-c3cc4nc(N)nc(N)c4cc3C)c2cc1OC` [Compound 24, 7-(5,6-dimethoxy-2-(thiazol-2-yl)-1H-benzo[d]-imidazol-1-yl)-6-methylquin-azoline-2,4-diamine], the inhibition constant Ki is 170 nM in assay [1] and 0.019 nM in assay [3] (S. aureus DHFR). In addition, the MIC in assay [2] (setting [4]) and in assay [2] (setting [5]) was not above 0.5 µg/mL each time.
For `Cc1cc2c(N)nc(N)nc2cc1-c1cccc(CC#N)c1` [Compound 13, 2-(3-(2,4-diamino-6-methylquinazolin-7-yl)-phenyl)acetonitrile], the results for the Ki in assay [1] and in assay [3] (S. aureus DHFR) were 44 nM and 0.5 nM, respectively. The MIC came to 2 µg/mL (≈ 6.91 µM) in assay [2] (setting [4]) and 0.5 µg/mL (≈ 1.73 µM) in assay [2] (setting [5]).
For `COc1ccc(-c2cc3nc(N)nc(N)c3cc2Cn2ccnc2)cc1OC` [Compound 10, 6-((1H-imidazol-1-yl)methyl)-7-(3,4-dimethoxyphenyl)quinazoline-2,4-diamine], the inhibitory constant (Ki) in assay [1] came to 53.6 nM; in assay [3] (S. aureus DHFR), 0.51 nM. Further, the MIC in assay [2] (setting [4]) is 2 µg/mL (≈ 5.31 µM); in assay [2] (setting [5]) it was 8 µg/mL (≈ 21.3 µM).
Consider `Cc1cc2c(N)nc(N)nc2cc1-c1cc(N)cc(C#N)c1` [Compound 12, 3-amino-5-(2,4-diamino-6-methylquin-azolin-7-yl)benzonitrile], for which the Ki in assay [1] was 44 nM; in assay [3] (S. aureus DHFR) it was 0.65 nM. Further, the MIC in assay [2] (setting [4]) and in assay [2] (setting [5]) was 1 µg/mL (≈ 3.44 µM) each time.
